Measured values published in US20250230193A1, “CYCLIC COMPOUND HAVING SELECTIVE KRAS INHIBITORY EFFECT ON HRAS AND NRAS” (CHUGAI SEIYAKU KABUSHIKI KAISHA, priority 2022, published 2025).

How the values were obtained:
[1] = molecular target: GDP-bound NRAS wild-type protein (Homo sapiens, UniProt P01111); experiment: Binding to NRAS by surface plasmon resonance (SPR), Single Cycle Kinetics; settings: SPR; KD ratio class
[2] = molecular target: GDP-bound HRAS wild-type protein (Homo sapiens, UniProt P01112); experiment: Binding to HRAS by surface plasmon resonance (SPR), Single Cycle Kinetics; settings: SPR; KD ratio class
[3] = system: human lung cancer strain NCI-H441; experiment: cells; settings: NCI-H441, 96 h, read-out: NCI-H441 IC50 (nM)

Chain of GDP-bound NRAS wild-type protein (P01111 whole entry): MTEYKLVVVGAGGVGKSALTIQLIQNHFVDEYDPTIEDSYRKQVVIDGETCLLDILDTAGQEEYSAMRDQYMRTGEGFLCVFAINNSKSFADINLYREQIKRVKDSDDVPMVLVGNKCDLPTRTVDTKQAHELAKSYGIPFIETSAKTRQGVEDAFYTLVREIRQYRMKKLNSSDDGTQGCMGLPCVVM
Chain of GDP-bound HRAS wild-type protein (P01112 whole entry): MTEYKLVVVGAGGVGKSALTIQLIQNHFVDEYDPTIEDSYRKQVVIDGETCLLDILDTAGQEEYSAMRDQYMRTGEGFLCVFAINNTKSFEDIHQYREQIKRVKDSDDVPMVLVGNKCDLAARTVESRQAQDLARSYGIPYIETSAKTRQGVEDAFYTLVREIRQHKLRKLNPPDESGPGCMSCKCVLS

| SMILES | NRAS/KRAS (ratio of KD value for GDP-bound NRAS wild-type protein to KD value for KRAS) [1] | HRAS/KRAS (ratio of KD value for GDP-bound HRAS wild-type protein to KD value for KRAS) [2] | IC50 [3] |
| --- | --- | --- | --- |
| CCO[C@@H]1C[C@H]2C(=O)NC3(CCC3)C(=O)N(C)[C@@H](C3CCCC3)C(=O)N(C)[C@H](C(=O)N(C)C)CC(=O)N(C)[C@@H](CC3CC3)C(=O)N[C@@H]([C@@H](C)CC)C(=O)N(C)CC(=O)N(C)[C@H]3C/C=C\CCN(C3=O)[C@@H](Cc3ccc(F)cc3)C(=O)N(C)CC(=O)N[C@@H](CCc3cc(F)c(Cl)c(F)c3)C(=O)N2C1 [PP1479] | A (a compound having 10 or more and less than 20 is denoted as A) | B (a compound having 3 or more and less than 10 is denoted as B) | 140 nM |
| CCO[C@@H]1C[C@H]2C(=O)NC3(CCC3)C(=O)N(C)[C@@H](C3CCCC3)C(=O)N(C)[C@H](C(=O)N3CCCC3)CC(=O)N(C)[C@@H](CC3CCCCC3)C(=O)N[C@@H]([C@@H](C)CC)C(=O)N(C)CC(=O)N(C)[C@H]3C/C=C\CCN(C3=O)[C@@H](Cc3ccc(C(F)(F)F)cc3)C(=O)N(C)CC(=O)N[C@@H](CCc3cc(F)c(C(F)(F)F)c(F)c3)C(=O)N2C1 [PP1419] | AA (a compound having 20 or more is denoted as AA) | A (a compound having 10 or more and less than 20 is denoted as A) | 40.4 nM |
| C#CC[C@H]1C(=O)N[C@@H]([C@@H](C)CC)C(=O)N(C)CC(=O)N(C)[C@H]2CC[C@@H](C)CN(C2=O)[C@@H](Cc2ccc(C(F)(F)F)cc2)C(=O)N(C)CC(=O)N[C@@H](CCc2ccc(C(F)(F)F)c(Cl)c2)C(=O)N2CCC[C@H]2C(=O)NC2(CCCC2)C(=O)N(C)[C@@H](C2CCCC2)C(=O)N(C)[C@H](C(=O)N(C)C)CC(=O)N1C [PP1340] | B (a compound having 3 or more and less than 10 is denoted as B) | B (a compound having 3 or more and less than 10 is denoted as B) | 10.9 nM |
| CCO[C@@H]1C[C@H]2C(=O)NC3(CCC3)C(=O)N(C)[C@@H](C3CCCC3)C(=O)N(C)[C@H](C(=O)N3CCOCC3)CC(=O)N(C)[C@@H](CC)C(=O)N[C@@H]([C@@H](C)CC)C(=O)N(C)CC(=O)N(C)[C@H]3C[C@@H](C)[C@@H](C)CN(C3=O)[C@@H](Cc3ccc(C(F)(F)F)cc3)C(=O)N(C)CC(=O)N[C@@H](CCc3cc(F)c(C(F)(F)F)c(F)c3)C(=O)N2C1 [PP1354] | A (a compound having 10 or more and less than 20 is denoted as A) | B (a compound having 3 or more and less than 10 is denoted as B) | 3.6 nM |
| CCO[C@@H]1C[C@H]2C(=O)NC3(CCC3)C(=O)N(C)[C@@H](C3CCCC3)C(=O)N(C)[C@H](C(=O)N3CCOCC3)CC(=O)N(C)[C@@H](CC)C(=O)N[C@@H]([C@@H](C)CC)C(=O)N3CC[C@H]3C(=O)N(C)[C@H]3C[C@@H](C)[C@@H](C)CN(C3=O)[C@@H](Cc3ccc(C(F)(F)F)cc3)C(=O)N(C)CC(=O)N[C@@H](CCc3ccc(C(F)(F)F)c(Cl)c3)C(=O)N2C1 [PP1357] | A (a compound having 10 or more and less than 20 is denoted as A) | B (a compound having 3 or more and less than 10 is denoted as B) | 5.4 nM |
| CC[C@H](C)[C@@H]1NC(=O)[C@H](CC2CC2)N(C)C(=O)C[C@@H](C(=O)N2CCCC2)N(C)C(=O)[C@H](C2CCCC2)N(C)C(=O)C2(CCCC2)NC(=O)[C@@H]2C[C@@H](C(F)(F)F)CN2C(=O)[C@H](CCc2cc(F)c(C(F)(F)F)c(F)c2)NC(=O)CN(C)C(=O)[C@H](Cc2ccc(F)cc2)N2CC/C=C\C[C@@H](C2=O)N(C)C(=O)CN(C)C1=O [PP1509] | A (a compound having 10 or more and less than 20 is denoted as A) | A (a compound having 10 or more and less than 20 is denoted as A) | 67.9 nM |
| CC[C@H](C)[C@@H]1NC(=O)[C@H](CC)N(C)C(=O)C[C@@H](C(=O)N2CCOCC2)N(C)C(=O)[C@H](C2CCCC2)N(C)C(=O)C2(CCCC2)NC(=O)[C@@H]2CCCN2C(=O)[C@H](CCc2ccc(C(F)(F)F)c(Cl)c2)NC(=O)CN(C)C(=O)[C@H](Cc2ccc(C(F)(F)F)cc2)N2C[C@H](C)CC[C@@H](C2=O)N(C)C(=O)CN(C)C1=O [PP1337] | B (a compound having 3 or more and less than 10 is denoted as B) | B (a compound having 3 or more and less than 10 is denoted as B) | 29.8 nM |
| CCO[C@@H]1C[C@H]2C(=O)NC3(CCCC3)C(=O)N(C)[C@@H](C3CCCC3)C(=O)N(C)[C@H](C(=O)N(C)C)CC(=O)N(C)[C@@H](CC3CC3)C(=O)N[C@@H]([C@@H](C)CC)C(=O)N(C)CC(=O)N(C)[C@H]3C[C@@H](C)[C@@H](C)CN(C3=O)[C@@H](Cc3ccc(C(F)(F)F)cc3)C(=O)N(C)CC(=O)N[C@@H](CCc3ccc(C(F)(F)F)c(Cl)c3)C(=O)N2C1 [PP1362] | A (a compound having 10 or more and less than 20 is denoted as A) | B (a compound having 3 or more and less than 10 is denoted as B) | 3.7 nM |
| CCO[C@@H]1C[C@H]2C(=O)NC3(CCC3)C(=O)N(C)[C@@H](C(CC)CC)C(=O)N(C)[C@H](C(=O)N3CCOCC3)CC(=O)N(C)[C@@H](CC)C(=O)N[C@@H]([C@@H](C)CC)C(=O)N(C)CC(=O)N(C)[C@H]3C/C=C\CCN(C3=O)[C@@H](Cc3ccc(C(F)(F)F)cc3)C(=O)N(C)CC(=O)N[C@@H](CCc3cc(F)c(C(F)(F)F)c(F)c3)C(=O)N2C1 [PP1286] | AA (a compound having 20 or more is denoted as AA) | A (a compound having 10 or more and less than 20 is denoted as A) | 58.8 nM |
| CCCOC[C@H]1C(=O)N[C@@H]([C@@H](C)CC)C(=O)N(C)CC(=O)N(C)[C@H]2C/C=C\CCN(C2=O)[C@@H](Cc2ccc(C(F)(F)F)cc2)C(=O)N(C)CC(=O)N[C@@H](CCc2cc(F)c(C(F)(F)F)c(F)c2)C(=O)N2C[C@H](OCC)C[C@H]2C(=O)NC2(CC(C)(C)C2)C(=O)N(C)[C@@H](C2CCCC2)C(=O)N(C)[C@H](C(=O)N(C)CC)CC(=O)N1C [PP1572] | A (a compound having 10 or more and less than 20 is denoted as A) | A (a compound having 10 or more and less than 20 is denoted as A) | 3.6 nM |
| CCO[C@@H]1C[C@H]2C(=O)NC3(CCC3)C(=O)N(C)[C@@H](C3CCCC3)C(=O)N(C)[C@H](C(=O)N(C)C)CC(=O)N(C)[C@@H](CC(C)C)C(=O)N[C@@H]([C@@H](C)CC)C(=O)N(C)CC(=O)N(C)[C@H]3C/C=C\CCN(C3=O)[C@@H](Cc3ccc(F)cc3C)C(=O)N(C)CC(=O)N[C@@H](CCc3ccc(Cl)c(Cl)c3)C(=O)N2C1 [PP1480] | A (a compound having 10 or more and less than 20 is denoted as A) | B (a compound having 3 or more and less than 10 is denoted as B) | 85.8 nM |
